System: ME-016 tumor
Experiment: Murine BRAFmut melanoma PDX model, tumor growth and survival
Assay type: in vivo
Settings: ME-016 tumor-containing mice; Compound I 100 mg/kg, dabrafenib 25 mg/kg, trametinib 1 mg/kg
Description: Mice containing a ME-016 tumor were treated with vehicle, Compound I (100 mg/kg), dabrafenib (25 mg/kg), trametinib (1 mg/kg), Compound I+dabrafenib, Compound I+trametinib, dabrafenib+trametinib, and Compound I+dabrafenib+trametinib.

CC(C)N1CCN(c2ccc(Nc3ncc4cc5n(c4n3)C3(CCCCC3)CNC5=O)nc2)CC1 [Compound I, 2′-((5-(4-isopropylpiperazin-1-yl)pyridin-2-yl)amino)-7′,8′-dihydro-6′H-spiro[cyclohexane-1,9′-pyrazino[1′,2′:1,5]pyrrolo[2,3-d]pyrimidin]-6′-one]
Median OS: 42.5 days

— patent US11357779B2 (G1 Therapeutics, Inc., priority 2018, dated 2022)
